Laboratory results as given in patent US12016858B2, “Methods for the treatment of abnormal involuntary movement disorders” (AUSPEX PHARMACEUTICALS, INC., priority 2015, dated 2024).

Test system: subjects with moderate to severe drug-induced tardive dyskinesia (TD)
Assay: Open-label, single-arm long-term study in tardive dyskinesia
Assay type: in vivo, human
Conditions: by Week 6
Method: An open-label, single-arm study in which male and female subjects with moderate to severe drug-induced tardive dyskinesia (TD) was conducted to evaluate the safety and tolerability of long-term maintenance therapy with deutetrabenazine, and to evaluate the efficacy of long-term maintenance therapy of deutetrabenazine to reduce the severity of abnormal involuntary movements of TD. Study Design. […] Dose Regimen. Deutetrabenazine tablets were provided in dosage strengths of 6, 9, 12, 15, and 18 mg. During dose adjustment/titration, deutetrabenazine was supplied in weekly blister cards. During long-term treatment, deutetrabenazine will be supplied in 30-count bottles. Study drug were administered as follows. All treatment regimens were administered twice daily (BID) with meals, approximately 10 hours apart during the day. […] If a subject experienced a clinically significant AE attributable to deutetrabenazine, the Investigator determined if a dose reduction or suspension was necessary. […] During titration, the investigator, in consultation with the subject determined when an adequate level of dyskinesia control had been achieved. […] If a subject experienced a clinically significant AE attributable to deutetrabenazine, the investigator determined if a dose reduction or suspension was necessary. […]

## [2H]C([2H])([2H])Oc1cc2c(cc1OC([2H])([2H])[2H])C1CC(=O)C(CC(C)C)CN1CC2 (stereo not drawn) [deutetrabenazine, (RR, SS)-1,3,4,6,7,11b-hexahydro-9,10-di(methoxy-d3)-3-(2-methylpropyl)-2H-benzo[a]quinolizin-2-one]
  subjects much or very much improved according to PGIC and CGIC: over 50%
